Laboratory results: patent US11298314B2, “Injectable composition for localized fat reduction without pain, edema, and side effects, and method for preparing same” (AMI PHARM CO., LTD., priority 2017, dated 2022)
Entries after “also recorded” stand apart in the source; their conditions may differ. Where two headings read alike, the source gives them in different places.

Columns and labels:
[1] = tested on: paw of the rats; test: Rat paw edema; assay type: in vivo, Sprague Dawley rats; conditions: for degree of edema, 1 hour after administration / degree of edema, 2 hours after administration / degree of edema, Immediately after administration: 0.1 ml into rat paw, swelling vs before injection; for degree of edema in words: 2 hours after administration, rat paw
How it was run: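 Male Sprague Dawley rats (6 weeks old, 170–200 g) received 0.1 ml of PBS or test composition into the paw. Paw thickness measured by caliper before, immediately after, and 1 or 2 h post-injection; edema graded 0–4, with injection-site skin lesions photographed.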

[2] = tested on: inguinal fat pad; conditions: 0.2 ml s.c. once into inguinal fat pad, 8 days post-injection
[3] = tested on: tissues of the injected area (rat paw); test: H&E staining histological test (inflammation) of injected rat paw; assay type: in vivo, Sprague Dawley rats; conditions: for Inflammation reaction: GCA 0.0, H&E of injected rat paw; for degree of inflammation (H&E) in words: rats sacrificed at 3 hours, injected paw
Experimental: The tissues of the injected area were dissected, fixed with 10% formalin, and then the specimen was prepared and images were captured using an optical microscope. The degree of inflammation was evaluated as follows.

[4] = tested on: 3T3-L1 adipocytes; test: Lipolysis assay (glycerol release); assay type: cell-based; conditions: 48 hours; listed as PPC single
Experimental: The glycerol activity assay was performed with the test materials to determine whether the cell death in the MTT assay was due to necrosis or lipolysis. Glycerol is a specific marker that increases when fat breaks down. Abcam Lipolysis Assay Kit (Colorimetric) was used according to the manufacturer's manual, and the method of the test was as follows: […] And then the lysis was induced. […] After adding the glycerol assay complex (50 μl) thereto, the solution was incubated at room temperature for 30 minutes. Absorbance was measured at OD 570 (using standard curve for absolute determination).

[5] = tested on: 3T3-L1 adipocytes; test: Adipocyte (3T3-L1) reducing effect, MTT assay; assay type: cell-based; conditions: for adipocyte-reducing activity compared with DCA 1.0% (Kybella): 96 hours
Experimental: Tests were performed to compare the adipocyte reducing activity of the PPC single composition and the PPC composition solubilized with bile acids. Differentiated 3T3L-1 adipocyte lines were used to observe adipocyte reduction activity, and cell viability was monitored by MTT assay. […] Materials and methods employed in the following experiments are described below. In the following, % of the composition refers to % (w/v).
The specific test methods are as follows. […] The cells were washed twice with PBS, treated with MTT reagent (50 μl) and left at 37° C. for 2 hours. After removing the supernatant, MTT formazan crystals were dissolved in DMSO and the absorbance was measured at 540 nm using a microplate reader.
The 3T3-L1 adipocyte (ATCC) was cultured in Dulbecco's modified eagle medium (DMEM) (Invitrogen) supplemented with 10% fetal bovine serum, 100 units/ml penicillin and 100 μg/ml streptomycin under the condition of 5% CO2 and 37° C. […] Subsequently, the medium was replaced with DMEM medium containing 1 μg/ml insulin (Sigma), and the culture medium was maintained and changed every 2 to 3 days until the degree of differentiation reaches maximum. If it took more than 7 days, the cells were kept in normal DMEM culture medium until starting the tests. […] After the cells were incubated for 3 hours under the condition of 37° C. and 5% CO2, the MTT solution was removed.

[6] = tested on: Caspase 3 in 3T3-L1 adipocytes; test: Caspase 3 activity assay; assay type: cell-based; conditions: 0-48 hours; listed as PPC single composition
Experimental: The Caspase 3 activity assay was performed with the test materials to determine whether the cell death in the result of MTT assay was due to necrosis or apoptosis. The Caspase 3 specifically increases when apoptosis occurs and is a marker of apoptosis. […] The cells were then treated with 50 ul of cell lysis buffer (10 mM Tris-HCl, 10 mM NaH2PO4/NaHPO4, pH 7.5, 130 mM NaCl, 1% Triton X-100 and 10 mM sodium pyrophosphate) and left at 4° C. for […]. The supernatant was collected by centrifugation at 1000× rpm for 1 minute, and protein quantification was performed by BCA method. The 50 μl of reaction buffer (4 mM HEPES, pH 7.5, 10% glycerol, 2 mM dithiothreitol) and 0.5 μl of 4 mM DEVD-p-NA were added to each sample and reacted at 37° C. for 1 hour. Then wavelength was measured with a […] at 405 nm.

[7] = Formulation stability of PPC injectable preparations: property, transparency, particle size, pH
Experimental: The particle size was measured using a nano particle size analyzer (Microtrac Wave, MICROTRACT, USA). […] The transparency was measured using a spectrophotometer (CM-3600d, KONICA MINOLTA, JAPAN). The pH was measured with a pH meter (ST3100, OHAUS, GERMANY), and the isotonicity was measured with an osmotic pressure meter (Vapro 5600, Elitech Group, Tokyo, Japan), and viscosity was analyzed using a viscometer (Digital Viscometer CL-2, CAS, Korea).
The washed and sterilized preparation tank was charged with the water for injection (at room temperature), and phosphatidylcholine (PPC) and benzyl alcohol were added thereto, and the mixture was stirred at 200 RPM for 2 hours under the condition of nitrogen pressure, shading and room temperature. After the completion of stirring, the mixture was transferred to an ultra-high pressure homogenizer (Nano Disperser NLM100, Ilshin Autoclave, Korea) with a nitrogen pressure. Ultra-high pressure homogenization (dispersion) was carried out at 12,000 psi for 7 cycles, and the particles were finely pulverized. Then, the pH was adjusted. After filtration through a 0.2 μm filter, the vial was filled and sealed.
Specifically, the water for injection was put into the preparation tank which was cleaned and sterilized (room temperature), and sodium hydroxide was added to the water for injection. Then deoxycholic acid and benzyl alcohol were added, stirred and dissolved. Then, phosphatidylcholine was added thereto, and the mixture was stirred at 200 RPM for about 24 hours under shading, sealing, room temperature (25° C.), and nitrogen pressure. After completion of the stirring, the pH was adjusted (if necessary, with additional sodium hydroxide or hydrochloric acid), and it was filtered through a 0.2 μm filter, and filled into the vial and sealed.
Then glycocholic acid and benzyl alcohol were added, stirred and dissolved. Then, phosphatidylcholine was added thereto, and the mixture was stirred at 200 RPM for about 24 hours under shading, sealing, room temperature (25° C.), and nitrogen pressure. After completion of the stirring, the pH was adjusted (if necessary, with additional sodium hydroxide or 0.001-0.6% of hydrochloric acid), and it was filtered through a 0.2 μm filter, and filled into the vial and sealed.
The formulation stability of the PPC injectable compositions solubilized with glycocholic acid (GCA) in Tables 3 and 4 was evaluated immediately after the preparation and 30 days after the preparation (refrigerated storage).

1,2-diacyl-sn-glycero-3-phosphocholine [PPC]
degree of edema, 1 hour after administration ([1]; listed as PPC 1.25%): + (mild edema [+, (the degree of swelling was 1-20% compared to before the injection)])
degree of edema, 2 hours after administration ([1]; listed as PPC 1.25%): + (mild edema [+, (the degree of swelling was 1-20% compared to before the injection)])
degree of edema, Immediately after administration ([1]; listed as PPC 1.25%): + (mild edema [+, (the degree of swelling was 1-20% compared to before the injection)])
degree of edema, 1 hour after administration ([1]; listed as PPC 2.50%): + (mild edema [+, (the degree of swelling was 1-20% compared to before the injection)])
degree of edema, 2 hours after administration ([1]; listed as PPC 2.50%): + (mild edema [+, (the degree of swelling was 1-20% compared to before the injection)])
degree of edema, Immediately after administration ([1]; listed as PPC 2.50%): + (mild edema [+, (the degree of swelling was 1-20% compared to before the injection)])
degree of edema, 1 hour after administration ([1]; listed as PPC 5.00%): + (mild edema [+, (the degree of swelling was 1-20% compared to before the injection)])
degree of edema, 2 hours after administration ([1]; listed as PPC 5.00%): + (mild edema [+, (the degree of swelling was 1-20% compared to before the injection)])
degree of edema, Immediately after administration ([1]; listed as PPC 5.00%): + (mild edema [+, (the degree of swelling was 1-20% compared to before the injection)])
degree of edema, 1 hour after administration ([1]; listed as PPC 7.50%): + (mild edema [+, (the degree of swelling was 1-20% compared to before the injection)])
degree of edema, 2 hours after administration ([1]; listed as PPC 7.50%): + (mild edema [+, (the degree of swelling was 1-20% compared to before the injection)])
degree of edema, Immediately after administration ([1]; listed as PPC 7.50%): ++ (moderate edema [++, (the degree of swelling was 20-40% compared to before the injection)])
degree of edema, 1 hour after administration ([1]; listed as PPC 10.0%): + (mild edema [+, (the degree of swelling was 1-20% compared to before the injection)])
degree of edema, 2 hours after administration ([1]; listed as PPC 10.0%): + (mild edema [+, (the degree of swelling was 1-20% compared to before the injection)])
degree of edema, Immediately after administration ([1]; listed as PPC 10.0%): ++ (moderate edema [++, (the degree of swelling was 20-40% compared to before the injection)])
degree of edema, 1 hour after administration ([1]; listed as PPC 12.5%): ++ (moderate edema [++, (the degree of swelling was 20-40% compared to before the injection)])
degree of edema, 2 hours after administration ([1]; listed as PPC 12.5%): ++ (moderate edema [++, (the degree of swelling was 20-40% compared to before the injection)])
degree of edema, Immediately after administration ([1]; listed as PPC 12.5%): ++ (moderate edema [++, (the degree of swelling was 20-40% compared to before the injection)])
degree of edema, 1 hour after administration ([1]; listed as PPC 15.0%): ++ (moderate edema [++, (the degree of swelling was 20-40% compared to before the injection)])
degree of edema, 2 hours after administration ([1]; listed as PPC 15.0%): ++ (moderate edema [++, (the degree of swelling was 20-40% compared to before the injection)])
degree of edema, Immediately after administration ([1]; listed as PPC 15.0%): +++ (severe edema [+++, (the degree of swelling was 40-60% compared to before the injection)])
degree of edema in words ([1]; listed as PPC 12.5%): moderate
degree of edema in words ([1]; listed as PPC 15.0%): moderate
inflammation at the site of administration, dermal and epidermal tissues [2]: no inflammatory cells such as neutrophils
histological change of adipocytes in fat tissue ([2]; listed as PPC 5.0%): size of adipocytes was reduced
histological change of adipocytes in fat tissue ([2]; listed as PPC 15.0%): development of macrophages was confirmed around adipocytes
histological change of adipocytes in fat tissue ([2]; listed as PPC single composition): adipocyte apoptosis and degradation were induced in a concentration-dependent manner
Inflammation reaction ([3]; PPC single composition 2.50% (w/v)): −
Inflammation reaction ([3]; PPC single composition 5.00% (w/v)): −
Inflammation reaction ([3]; PPC single composition 7.50% (w/v)): −
Inflammation reaction ([3]; PPC single composition 10.0% (w/v)): +
Inflammation reaction ([3]; PPC single composition 12.5% (w/v)): +
Inflammation reaction ([3]; PPC single composition 15.0% (w/v)): ++
degree of inflammation (H&E) in words ([3]; listed as PPC 10.0%): Mild
degree of inflammation (H&E) in words ([3]; listed as PPC 12.5%): Mild
degree of inflammation (H&E) in words ([3]; listed as PPC 15.0%): moderate
glycerol release / cytolytic activity [4]: slightly higher cytolytic activity than at 24 hours; also recorded: slightly higher cytolytic activity than that of 24 hours
adipocyte viability / adipocyte-reducing activity ([5]; 24 to 96 hours, various concentrations, listed as PPC single composition): reduced adipocyte viability in time and concentration dependent manner
adipocyte-reducing activity compared with DCA 1.0% (Kybella) ([5]; listed as PPC 5%): equivalent
adipocyte-reducing activity compared with DCA 1.0% (Kybella) ([5]; listed as PPC 5.0%): similar; also recorded: equivalent
concentration of phosphatidylcholine with no lipolysis effect ([5]; FIGS. 7A to 7D): less than 0.625 % (w/v)
caspase-3 activity [6]: time-dependent effect of inducing caspase-3 activity to a considerable level; also recorded: time-dependent effect of inducing caspase-3 activity to a considerable extent
formulation stability / property in words [7]: poor formulation stability
